Results taken from paper PMC4669708 (Cell Death & Disease, 2015).

What was measured:
Test in all cases: c-ponatinib pulldown LC-MS/MS
Assay type in all cases: binding
ABL1 = ABL1 (Homo sapiens, UniProt P00519)
In short: (§1)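 Whole cell lysate (10 mg) was first passed over immobilized c-ponatinib, and bound proteins were eluted. After reduction, alkylation and tryptic digestion, the peptides were analysed by LC-MS/MS. Finally, binding specificity was assigned by a combined P-value, with or without free-compound competition.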

YWHAQ = target: T1, YWHAQ (Homo sapiens, UniProt P27348)
T1 sequence (P27348 1-245): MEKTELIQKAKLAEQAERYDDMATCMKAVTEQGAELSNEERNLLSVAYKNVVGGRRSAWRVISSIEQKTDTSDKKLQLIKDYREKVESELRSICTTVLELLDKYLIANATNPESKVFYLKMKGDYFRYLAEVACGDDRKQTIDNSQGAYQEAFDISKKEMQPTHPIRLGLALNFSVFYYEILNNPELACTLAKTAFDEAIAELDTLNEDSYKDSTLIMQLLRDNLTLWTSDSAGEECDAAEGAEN
In short: as §1

TAB1 = target: T2, TAB1 (Homo sapiens, UniProt Q15750)
T2 sequence (Q15750 1-504): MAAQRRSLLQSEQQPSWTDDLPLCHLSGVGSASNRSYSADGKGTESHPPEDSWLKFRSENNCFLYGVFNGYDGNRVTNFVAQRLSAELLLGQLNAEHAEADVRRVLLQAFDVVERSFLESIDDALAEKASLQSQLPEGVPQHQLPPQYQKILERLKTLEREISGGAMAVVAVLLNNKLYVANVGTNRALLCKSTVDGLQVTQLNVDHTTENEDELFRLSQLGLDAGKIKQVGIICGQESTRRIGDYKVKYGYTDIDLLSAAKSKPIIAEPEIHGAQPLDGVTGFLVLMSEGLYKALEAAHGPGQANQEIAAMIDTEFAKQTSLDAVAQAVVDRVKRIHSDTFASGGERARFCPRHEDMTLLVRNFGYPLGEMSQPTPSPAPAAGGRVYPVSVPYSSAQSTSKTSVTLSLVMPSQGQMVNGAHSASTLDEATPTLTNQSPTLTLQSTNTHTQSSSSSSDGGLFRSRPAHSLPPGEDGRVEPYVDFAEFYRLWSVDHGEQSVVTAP
T2 sequence (O43318 1-606 partner): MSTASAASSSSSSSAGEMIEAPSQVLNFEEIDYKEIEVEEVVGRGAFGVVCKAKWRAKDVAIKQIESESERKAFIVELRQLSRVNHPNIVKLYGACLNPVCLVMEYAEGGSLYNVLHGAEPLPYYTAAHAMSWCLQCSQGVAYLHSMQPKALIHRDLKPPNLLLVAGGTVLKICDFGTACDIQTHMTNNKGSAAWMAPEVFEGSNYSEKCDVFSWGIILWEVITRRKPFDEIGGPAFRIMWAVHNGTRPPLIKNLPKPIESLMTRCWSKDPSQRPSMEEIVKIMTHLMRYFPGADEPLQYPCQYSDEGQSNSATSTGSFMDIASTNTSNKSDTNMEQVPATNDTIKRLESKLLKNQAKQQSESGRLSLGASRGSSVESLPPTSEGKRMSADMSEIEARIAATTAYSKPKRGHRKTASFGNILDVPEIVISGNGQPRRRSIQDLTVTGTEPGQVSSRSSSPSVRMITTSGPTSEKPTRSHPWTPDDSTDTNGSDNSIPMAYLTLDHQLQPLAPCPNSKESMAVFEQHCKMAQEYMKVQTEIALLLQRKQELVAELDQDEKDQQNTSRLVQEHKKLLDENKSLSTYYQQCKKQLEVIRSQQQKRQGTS
In short: as §1

Chain of ABL1 (P00519 whole entry): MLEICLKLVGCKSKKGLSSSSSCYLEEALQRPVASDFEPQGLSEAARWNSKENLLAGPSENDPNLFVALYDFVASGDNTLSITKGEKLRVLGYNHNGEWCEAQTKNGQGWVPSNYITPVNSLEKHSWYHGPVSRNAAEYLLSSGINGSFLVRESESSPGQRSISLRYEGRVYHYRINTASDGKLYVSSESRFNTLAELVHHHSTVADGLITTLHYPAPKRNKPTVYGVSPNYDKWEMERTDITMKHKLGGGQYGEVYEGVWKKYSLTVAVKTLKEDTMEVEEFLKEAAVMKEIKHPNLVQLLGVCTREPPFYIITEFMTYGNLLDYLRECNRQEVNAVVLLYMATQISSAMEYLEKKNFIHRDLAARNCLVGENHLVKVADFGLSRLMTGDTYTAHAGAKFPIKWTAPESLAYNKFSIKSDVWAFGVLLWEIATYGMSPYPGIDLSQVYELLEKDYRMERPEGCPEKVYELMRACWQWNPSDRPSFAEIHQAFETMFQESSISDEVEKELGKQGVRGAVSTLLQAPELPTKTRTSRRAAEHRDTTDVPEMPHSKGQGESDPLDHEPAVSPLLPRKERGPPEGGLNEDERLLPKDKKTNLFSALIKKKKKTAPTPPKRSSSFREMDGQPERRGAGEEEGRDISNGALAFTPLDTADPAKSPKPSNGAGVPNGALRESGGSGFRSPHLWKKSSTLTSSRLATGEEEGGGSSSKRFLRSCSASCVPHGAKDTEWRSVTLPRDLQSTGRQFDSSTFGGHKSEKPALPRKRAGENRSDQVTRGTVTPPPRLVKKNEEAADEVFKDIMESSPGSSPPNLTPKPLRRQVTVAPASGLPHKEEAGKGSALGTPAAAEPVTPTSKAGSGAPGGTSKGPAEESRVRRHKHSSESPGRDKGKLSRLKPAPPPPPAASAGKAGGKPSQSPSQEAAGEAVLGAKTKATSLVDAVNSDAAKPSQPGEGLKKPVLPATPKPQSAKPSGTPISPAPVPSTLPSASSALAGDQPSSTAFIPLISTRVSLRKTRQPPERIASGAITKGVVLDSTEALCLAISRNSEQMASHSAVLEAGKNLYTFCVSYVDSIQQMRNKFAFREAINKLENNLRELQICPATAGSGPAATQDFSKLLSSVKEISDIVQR

Av. SC comp. (ABL1; + free ponatinib): 0
Total SC comp. (ABL1; + free ponatinib): 0
Av. SC (ABL1; no competitor): 13.75
Total SC (ABL1; no competitor): 55
Av. SC comp. (YWHAQ; + free ponatinib): 1.25
Total SC comp. (YWHAQ; + free ponatinib): 5
Av. SC (YWHAQ; no competitor): 9
Total SC (YWHAQ; no competitor): 36
Av. SC comp. (TAB1; + free ponatinib): 6.75
Total SC comp. (TAB1; + free ponatinib): 27
Av. SC (TAB1; no competitor): 38.25
Total SC (TAB1; no competitor): 153
Structure (SMILES): Cc1ccc(C(=O)Nc2ccc(CN3CCN(CCCN)CC3)c(C(F)(F)F)c2)cc1C#Cc1cnc2cccnn12 [c-ponatinib]
